According to patent US20120258961A1, “4-AMINO-1,3-THIAZINE OR OXAZINE DERIVATIVE” (SHIONOGI & CO., LTD., priority 2009, published 2012):

What was measured:
[1] = tested on: Neuroblastoma SH-SY5Y cells (SH/APPwt) with human wild-type β-APP excessively expressed; test: Measurement of β-amyloid (Aβ) production inhibitory effect in cell; assay type: cell-based; conditions: 24 hours, Amyloid β 1-40 HTRF in culture supernatant, read-out: Test example 2 IC50 (amount needed to inhibit Aβ production by 50%)
Procedure: Neuroblastoma SH-SY5Y cells (SH/APPwt) with human wild-type β-APP excessively expressed therein were prepared at 8×10^5 cells/mL, and 150 μl portions thereof were inoculated into each well of a 96-well culture plate (Falcon). The cells were cultured for 2 hours at 37° C. in a 5% gaseous carbon dioxide incubator. Then, a solution which had been preliminarily prepared by adding and suspending the test compound (DMSO (dimethyl sulfoxide) solution) so as to be 2 μl/50 μl medium was added to the cell sap. Namely, the final DMSO concentration was 1%, and the amount of the cell culture was 200 μl. After the incubation was performed for 24 hours from the addition of the test compound, 100 μl of the culture supernatant was collected from each fraction. The amount of the Aβ in each fraction was measured.
The Aβ amount was measured as follows. 10 μl of a homogeneous time resolved fluorescence (HTRF) measurement reagent (Amyloid β 1-40 peptide; IBA Molecular Holding, S.A.) and 10 μl of the culture supernatant were put into a 384-well half area microplate (black microplate, Costar) and mixed with each other, and then left standing overnight at 4° C. while the light was shielded. Then, the fluorescence intensity (excitation wavelength: 337 nm, measurement wavelength: 620 nm and 665 nm) was measured with a Wallac 1420 multilabel counter (Perkin Elmer life sciences). The Aβ amount was determined from the count rate at each measurement wavelength (10000×Count 665/Count 620), and the amount needed to inhibit Aβ production by 50% (IC50) was calculated from at least six different dosages.

[2] = Brain distribution studies; assay type: in vivo; conditions: rat, intravenous 0.5 mg/mL/kg, 30 minutes later, read-out: Brain Kp value (area ratio brain/plasma)
Procedure: Intravenous administration is carried out to a rat by 0.5 mg/mL/kg dosage of a text compound. […] Then, the brain was extracted and 20-25% of homogenate thereof was prepared with distilled water. On the other hand, the obtained blood is used as plasma after centrifuging. Then, to the brain sample was added the control plasma at 1:1. To the plasma samples was added the control brains at 1:1. Each sample was measured using LC/MS/MS. The obtained area ratio (a brain/plasma) was used for the brain Kp value.

Recombinant human BACE1 = target: T1, Recombinant human BACE1 (Homo sapiens, UniProt P56817); test: Assay of BACE1 inhibiting activity; assay type: biochemical; conditions: Recombinant human BACE1 7.4 nmol/L, substrate peptide 18 nmol/L, pH 5.0, 30° C., 3 hours; read-out: Test example 1 IC50 (BACE1 inhibiting activity)
T1 construct: purchased R&D Systems
T1 sequence (P56817 46-501): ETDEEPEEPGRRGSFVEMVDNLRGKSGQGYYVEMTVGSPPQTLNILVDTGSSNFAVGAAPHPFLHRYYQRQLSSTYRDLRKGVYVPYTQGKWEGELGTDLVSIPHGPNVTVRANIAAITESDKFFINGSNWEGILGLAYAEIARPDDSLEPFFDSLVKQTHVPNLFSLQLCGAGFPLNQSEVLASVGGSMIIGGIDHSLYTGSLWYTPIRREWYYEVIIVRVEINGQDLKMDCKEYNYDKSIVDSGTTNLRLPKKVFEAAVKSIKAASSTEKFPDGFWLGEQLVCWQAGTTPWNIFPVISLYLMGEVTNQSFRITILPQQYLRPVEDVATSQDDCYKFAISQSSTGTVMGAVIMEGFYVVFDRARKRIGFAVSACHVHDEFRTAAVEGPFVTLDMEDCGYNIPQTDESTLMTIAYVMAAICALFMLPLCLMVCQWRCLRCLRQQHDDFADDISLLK
Procedure: 48.5 μL of substrate peptide solution (Biotin-XSEVNLDAEFRHDSGC-Eu: X=ε-amino-n-capronic acid, Eu=Europium cryptate) was added to each well of 96-hole half-area plate (a black plate: Costar), and after addition of 0.5 μl of the test compound (dissolved in […]) and 1 μl of Recombinant human BACE1 (R&D Systems), the reaction mixture was incubated at 30° C. for 3 hours. The substrate peptide was synthesized by reacting Cryptate TBPCOOH mono SMP (CIS bio international) with Biotin-XSEVNLDAEFRHDSGC (Peptide Institute, Inc.). The final concentrations of the substrate peptide and Recombinant human BACE1 were adjusted to 18 nmol/L and 7.4 nmol/L, respectively, and the reaction was performed in sodium acetate buffer (50 mmol/L sodium acetate, pH 5.0, 0.008% Triton X-100). After the incubation for reaction, 50 μl of 8.0 μg/ml Streptavidin-XL665 (CIS bio international) dissolved in phosphate buffer (150 mmol/L K2HPO4—KH2PO4, pH 7.0, 0.008% Triton X-100, 0.8 mol/L KF) was added to each well and left stand at 30° C. for an hour. After then, fluorescence intensity was measured (excitation wavelength: 320 nm, measuring wavelength: 620 nm and 665 nm) using Wallac 1420 multilabel counter (Perkin Elmer life sciences). Enzymatic activity was determined from counting ratio of each wavelength (10,000×Count 665/Count 620) and 50% inhibitory concentration (IC50) against the enzymatic activity was calculated.

[3] = Metabolism stability test; assay type: in vitro ADME; conditions: human liver microsomes 0.5 mg protein/mL, 1 mmol/L NADPH, 37° C., 30 minutes
Procedure: Using a commercially available pooled human hepatic microsomes, a test compound was reacted for a constant time, a remaining rate was calculated by comparing a reacted sample and an unreacted sample, thereby, a degree of metabolism in liver was assessed.
A reaction was performed (oxidative reaction) at 37° C. for 0 minute or 30 minutes in the presence of 1 mmol/L NADPH in 0.2 mL of a buffer (50 mmol/L Tris-HCl pH 7.4, 150 mmol/L potassium chloride, 10 mmol/L magnesium chloride) containing 0.5 mg protein/mL of human liver microsomes. After the reaction, 50 μL of the reaction solution was added to 100 μL of a methanol/acetonitrile=1/1 (v/v), mixed and centrifuged at 3000 rpm for 15 minutes. The test compound in the supernatant was quantified by LC/MS/MS, and a remaining amount of the test compound after the reaction was calculated, letting a compound amount at 0 minute reaction time to be 100%.

[4] = tested on: CYP1A2, CYP2C9, CYP2C19, CYP2D6, CYP3A4; test: in vitro; conditions: human, microsomes
Source text: Using commercially available pooled human hepatic microsome, and employing, as markers, O-deethylation of 7-ethoxyresorufin (CYP1A2), methyl-hydroxylation of tolbutamide (CYP2C9), 4′-hydroxylation of mephenyloin (CYP2C19), O-demethylation of dextromethorphan (CYP2D6) and hydroxylation of terfenadine (CYP3A4) as typical substrate metabolism reactions of human main five CYP enzyme forms (CYP1A2, 2C9, 2C19, 2D6, 3A4), an inhibitory degree of each metabolite production amount by a test compound was assessed. […]
Each five kinds of substrates, human hepatic microsome, and a test drug in 50 mmol/L Hepes buffer as a reaction solution was added to a 96-well plate at the composition as described above, NADPH, as a cofactor was added to initiate metabolism reactions as markers and, after the incubation at 37° C. for 15 minutes, a methanol/acetonitrile=1/1 (v/v) solution was added to stop the reaction. After the centrifugation at 3000 rpm for 15 minutes, resorufin (CYP1A2 metabolite) in the supernatant was quantified by a fluorescent multilabel counter and tributamide hydroxide (CYP2CP metabolite), mephenyloin 4′ hydroxide (CYP2C19 metabolite), dextromethorphan (CYP2D6 metabolite), and terfenadine alcohol (CYP3A4 metabolite) were quantified by LC/MS/MS. […]

[5] = BA test (oral absorption); assay type: in vivo; conditions: plasma; from AUCs of oral and intravenous administration groups, mouse or rats
Procedure: Materials and Methods for studies on oral absorption
(1) Animal: Mouse or Rats
(2) Breeding conditions: mouse or rats were allowed to freely take solid feed and sterilized tap water. (3) Dose and grouping: orally or intravenously administered at a predetermined dose; grouping was as follows (Dose depends on the compound) Oral administration: 1 to 30 mg/kg (n=2 to 3) Intravenous administration: 0.5 to 10 mg/kg (n=2 to 3) (4) Preparation of dosing solution: for oral administration, in a solution or a suspension state; for intravenous administration, in a solubilized state (5) Administration method: in oral administration, forcedly administer into ventriculus with oral probe; in intravenous administration, administer from caudal vein with a needle-equipped syringe (6) Evaluation items: blood was collected over time, and the plasma concentration of drug was measured by LC/MS/MS (7) Statistical analysis: regarding the transition of the plasma concentration, the area under the plasma concentration-time curve (AUC) was calculated by non-linear least squares program WinNonlin (Registered trade name), and the bioavailability (BA) was calculated from the AUCs of the oral administration group and intravenous administration group

[6] = Solubility test (Test Example 7(1)); assay type: physicochemical; conditions: aqueous buffer, kinetic from dmso stock; medium (JP-I, JP-II), 2% DMSO solution, after 4 hours; read-out: Solubility assessed by 3 stages from turbidity
Procedure: A 2-fold dilution series (12 points) of a 10 mM solution of a test compound in DMSO was added to a medium (JP-I, JP-II) (2%), and solubility was assessed by 3 stages (High; >40 μM, Medium; 3-40 μM, Low; <3 μM) from a turbidity after 4 hours (crystallization information).

[7] = target: T2, CYP3A4 enzyme expressed in Escherichia coli (Homo sapiens, UniProt P08684); test: CYP3A4 fluorescent MBI test; assay type: in vitro ADME; conditions: substrate 7-BFC
T2 construct: host or cells: Escherichia coli
T2 sequence (P08684 whole entry): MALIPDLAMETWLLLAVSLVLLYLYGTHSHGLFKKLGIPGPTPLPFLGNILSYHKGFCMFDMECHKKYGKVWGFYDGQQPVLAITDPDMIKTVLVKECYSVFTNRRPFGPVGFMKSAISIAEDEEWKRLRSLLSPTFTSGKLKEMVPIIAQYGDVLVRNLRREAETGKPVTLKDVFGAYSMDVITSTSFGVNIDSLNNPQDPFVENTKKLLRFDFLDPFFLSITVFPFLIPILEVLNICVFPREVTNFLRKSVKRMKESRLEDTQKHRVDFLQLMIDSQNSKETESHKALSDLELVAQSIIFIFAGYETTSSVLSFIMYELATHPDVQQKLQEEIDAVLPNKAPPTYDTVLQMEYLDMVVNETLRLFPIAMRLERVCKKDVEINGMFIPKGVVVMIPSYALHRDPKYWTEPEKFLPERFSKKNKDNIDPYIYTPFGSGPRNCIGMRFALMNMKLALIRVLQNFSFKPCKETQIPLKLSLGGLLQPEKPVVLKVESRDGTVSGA
Procedure: The CYP3A4 fluorescent MBI test is a test of investigating enhancement of CYP3A4 inhibition of a compound by a metabolism reaction, and the test was performed using, as CYP3A4 enzyme expressed in Escherichia coli and employing, as an index, a reaction in which 7-benzyloxytrifluoromethylchmarin (7-BFC) is debenzylated by the CYP3A4 enzyme to produce a metabolite, 7-hydroxytrifluoromethylchmarin (HFC) emitting fluorescent light.
The reaction conditions were as follows: substrate, 5.6 μmol/L 7-BFC; pre-reaction time, 0 or […]; reaction time, 15 minutes; reaction temperature, 25° C. […]
An enzyme in a K-Pi buffer (pH 7.4) and a test drug solution as a pre-reaction solution were added to a 96-well plate at the composition of the pre-reaction, a part of it was transferred to another 96-well plate so that it was 1/10 diluted by a substrate in a K-Pi buffer, NADPH as a co-factor was added to initiate a reaction as an index (without preincubation) and, after a predetermined time of a reaction, acetonitrile/0.5 mol/L Tris(trishydroxyaminomethane)=4/1 was added to stop the reaction. […] For the plate on which each index reaction had been performed, a fluorescent value of 7-HFC which is a metabolite was measured with a fluorescent plate reader. […]

Row | SMILES | IC50 [1] [nM] | further results
1 | CC1(c2cc(NC(=O)c3ccc(C#N)cn3)ccc2F)N=C(N)c2ccccc2S1 (stereo not shown) [Compound I-3] | ≤ 1000 | 
2 | CC1(c2cc(NC(=O)c3ccc(C#N)cn3)ccc2F)N=C(N)c2cc(F)ccc2O1 (stereo not shown) [Compound I-11] | ≤ 1000 | Kp at 0.5 h [2]: 5.8
3 | CC1(c2cc(NC(=O)c3ccc(C#N)cn3)ccc2F)N=C(N)c2ccc(F)cc2O1 (stereo not shown) [Compound I-12] | 15 | IC50 (Recombinant human BACE1): 61 nM
4 | CC1(c2cc(NC(=O)c3ccc(C#N)cn3)ccc2F)N=C(N)c2cc(Cl)ccc2O1 (stereo not shown) [Compound I-5] | ≤ 1000 | 
5 | Cc1cnc(C(=O)Nc2ccc(F)c(C3(C)N=C(N)CCS3(=O)=O)c2)cn1 (stereo not shown) [Compound I-19] | ≤ 1000 | Remaining amount of the test compound after the reaction (metabolism stability) [3]: 97%; IC50 at 15 min [4]: > 17000 nM
6 | Cc1cnc(C(=O)Nc2ccc(F)c(C3(C)N=C(N)c4ccccc4S3)c2)cn1 (stereo not shown) [Compound I-7] | ≤ 1000 | 
7 | CC1(c2cc(NC(=O)c3ccc(C#N)cn3)ccc2F)N=C(N)CCS1 (stereo not shown) [Compound I-6] | ≤ 1000 | 
8 | CC1(c2cc(NC(=O)c3ncc(Cl)cc3Cl)ccc2F)N=C(N)CCS1 (stereo not shown) [Compound I-2] | < 1 | IC50 (Recombinant human BACE1): 10 nM
9 | Cc1cnc(C(=O)Nc2ccc(F)c(C3(C)N=C(N)CCS3)c2)cn1 (stereo not shown) [Compound I-1] | ≤ 1000 | bioavailability [5]: 93.4%
10 | COc1cnc(C(=O)Nc2ccc(F)c(C3(C)N=C(N)c4ccccc4S3)c2)cn1 (stereo not shown) [Compound I-8] | 19 | IC50 (Recombinant human BACE1): 66 nM
11 | CC1(c2cc(NC(=O)c3ccc(C#N)cn3)ccc2F)N=C(N)c2cc(N)ccc2O1 (stereo not shown) [Compound I-9] | ≤ 1000 | solubility at 4 h [6]: > 40 µM
12 | CC1(c2cc(NC(=O)c3ccc(C#N)cn3)ccc2F)N=C(N)c2ccccc2O1 (stereo not shown) [Compound I-4] | ≤ 1000 | CYP3A4 fluorescent MBI: difference between IC50 values without and with preincubation [7]: (−) (when the difference is 3 μM or less, this was defined as (−))
13 | CC1(c2cc(NC(=O)c3ccc(C#N)cn3)ccc2F)N=C(N)c2ccc(N)cc2O1 (stereo not shown) [Compound I-10] | ≤ 1000 | 
